# Measurements as given in patent US20230278972A1, “SUBSTITUTED HALOALKYL SULFONANILIDE HERBICIDES” (FMC Corporation, priority 2020, published 2023).
# What was measured:
# Assay type in all cases: in vivo
# corn (Zea mays) = assay: Test A postemergence, corn; details: Postemergence, 0 to 100 scale (0 no effect, 100 complete control); for Corn plant response rating: 500 g ai/ha, visual injury vs untreated controls after approx. 10 days
# Procedure, shortened: (§1)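 After sowing into a sand-amended loam, pots for the preemergence test were treated by spraying directly onto soil. In parallel, seedlings at the one- to two-leaf stage and 2 to 10 cm tall were treated postemergence with the identical surfactant-containing formulation.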
# [1] = test system: pigweed (Amaranthus retroflexus); assay: Test A postemergence, pigweed; details: Postemergence, 0 to 100 scale (0 no effect, 100 complete control); for Pigweed plant response rating: 500 g ai/ha, visual injury vs untreated controls after approx. 10 days
# Procedure, shortened: as §1
# [2] = test system: Foxtail, Giant (giant foxtail, Setaria faberi); assay: Test A postemergence, Foxtail, Giant; details: Postemergence, 0 to 100 scale (0 no effect, 100 complete control); for Foxtail, Giant plant response rating: 500 g ai/ha, visual injury vs untreated controls after approx. 10 days
# Procedure, shortened: as §1
# [3] = test system: blackgrass (Alopecurus myosuroides); assay: Test A postemergence, blackgrass; details: Postemergence, 0 to 100 scale (0 no effect, 100 complete control); for Blackgrass plant response rating: 500 g ai/ha, visual injury vs untreated controls after approx. 10 days
# Procedure, shortened: as §1
# [4] = test system: Ryegrass, Italian (Italian ryegrass, Lolium multiflorum); assay: Test A preemergence, Ryegrass, Italian; details: Preemergence; for Plant response rating, Ryegrass, Italian: 0 to 100 scale (0 no effect, 100 complete control); for Ryegrass, Italian plant response rating: visual injury on 0 to 100 scale (0 no effect, 100 complete control), approximately 10 days
# Procedure, shortened: as §1
# [5] = test system: Ryegrass, Italian (Italian ryegrass, Lolium multiflorum); assay: Test A postemergence, Ryegrass, Italian; details: Postemergence, 0 to 100 scale (0 no effect, 100 complete control); for Ryegrass, Italian plant response rating: 500 g ai/ha, visual injury vs untreated controls after approx. 10 days
# Procedure, shortened: as §1
# [6] = test system: ragweed (common ragweed, Ambrosia artemisiifolia); assay: Test A postemergence, ragweed; details: Postemergence, 0 to 100 scale (0 no effect, 100 complete control); for Ragweed plant response rating: 500 g ai/ha, visual injury vs untreated controls after approx. 10 days
# Procedure, shortened: as §1
# [7] = test system: galium (catchweed bedstraw, Galium aparine); assay: Test A postemergence, galium; details: Postemergence, 0 to 100 scale (0 no effect, 100 complete control); for Galium plant response rating: 500 g ai/ha, visual injury vs untreated controls after approx. 10 days
# Procedure, shortened: (§2)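 Greenhouse pot test in a loam–sand blend; compounds delivered in a non-phytotoxic solvent carrying a surfactant, applied either as a directed spray to soil at seeding or over seedlings 2 to 10 cm high with one to two leaves.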
# [8] = test system: Foxtail, Giant (giant foxtail, Setaria faberi); assay: Test A preemergence, Foxtail, Giant; details: Preemergence; for Plant response rating, Foxtail, Giant: 0 to 100 scale (0 no effect, 100 complete control); for Foxtail, Giant plant response rating: visual injury on 0 to 100 scale (0 no effect, 100 complete control), approximately 10 days
# Procedure, shortened: as §1
# [9] = test system: barnyardgrass (Echinochloa crus-galli); assay: Test A preemergence, barnyardgrass; details: Preemergence, 0 to 100 scale (0 no effect, 100 complete control)
# Procedure, shortened: as §1
# kochia (Bassia scoparia) [10] = assay: Test A postemergence, kochia; details: Postemergence, 0 to 100 scale (0 no effect, 100 complete control); for Kochia plant response rating: 500 g ai/ha, visual injury vs untreated controls after approx. 10 days
# Procedure, shortened: as §1
# kochia (Bassia scoparia) [11] = assay: Test A preemergence, kochia; details: Preemergence; for Plant response rating, Kochia: 0 to 100 scale (0 no effect, 100 complete control); for Kochia plant response rating: visual injury on 0 to 100 scale (0 no effect, 100 complete control), approximately 10 days
# Procedure, shortened: as §1
# [12] = test system: pigweed (Amaranthus retroflexus); assay: Test A preemergence, pigweed; details: for Plant response rating, Pigweed: 0 to 100 scale (0 no effect, 100 complete control); for Pigweed plant response rating: visual injury on 0 to 100 scale (0 no effect, 100 complete control), approximately 10 days
# Procedure, shortened: as §2
# [13] = test system: wheat (Triticum aestivum); assay: Test A postemergence, wheat; details: Postemergence, 0 to 100 scale (0 no effect, 100 complete control); for Wheat plant response rating: 500 g ai/ha, visual injury vs untreated controls after approx. 10 days
# Procedure, shortened: as §2
# [14] = test system: barnyardgrass (Echinochloa crus-galli); assay: Test A postemergence, barnyardgrass; details: Postemergence, 1000 g ai/ha; visual injury, 0 to 100 scale (0 no effect, 100 complete control), approx. 10 days
# Procedure, shortened: as §2
# [15] = test system: ragweed (common ragweed, Ambrosia artemisiifolia); assay: Test A preemergence, ragweed; details: Preemergence; for Plant response rating, Ragweed: 0 to 100 scale (0 no effect, 100 complete control); for Ragweed plant response rating: visual injury on 0 to 100 scale (0 no effect, 100 complete control), approximately 10 days
# Procedure, shortened: as §1
# [16] = 1000 g ai/ha, visual injury, approx. 10 days
# [17] = 125 g ai/ha, visual injury, approx. 10 days
Structure (SMILES),"Plant response rating, Corn (corn (Zea mays); 125 g ai/ha)",Corn plant response rating (corn (Zea mays)),"Plant response rating, Pigweed ([1]; 125 g ai/ha)",Pigweed plant response rating [1],"Plant response rating, Foxtail, Giant ([2]; 125 g ai/ha)","Foxtail, Giant plant response rating [2]","Plant response rating, Blackgrass ([3]; 125 g ai/ha)",Blackgrass plant response rating [3],"Plant response rating, Ragweed [15, 17]","Plant response rating, Ryegrass, Italian [4, 17]","Plant response rating, Ryegrass, Italian ([5]; 125 g ai/ha)","Ryegrass, Italian plant response rating [5]","Plant response rating, Ragweed ([6]; 125 g ai/ha)",Ragweed plant response rating [6],"Plant response rating, Galium ([7]; 125 g ai/ha)",Galium plant response rating [7],"Plant response rating, Foxtail, Giant [8, 17]","Plant response rating, Barnyardgrass [9, 17]","Plant response rating, Barnyardgrass ([9]; 500 g ai/ha)","Plant response rating, Kochia (kochia (Bassia scoparia) [10]; 125 g ai/ha)",also measured
Cc1cc(C)c(N(S(=O)(=O)C(F)(F)F)S(=O)(=O)C(F)(F)F)cc1C(=O)N1CCSCC1 [Compound 5],,,,,,,,,,,,,,,,,,,,,"Plant response rating, Corn (corn (Zea mays); [16]): 10; Plant response rating, Pigweed [1, 16]: 80; Plant response rating, Foxtail, Giant [2, 16]: 90; Plant response rating, Blackgrass [3, 16]: 0; Plant response rating, Ryegrass, Italian ([4]; 1000 g ai/ha): 100; Plant response rating, Ryegrass, Italian [5, 16]: 30; Plant response rating, Ragweed [6, 16]: 80; Plant response rating, Galium [7, 16]: 90; Plant response rating, Foxtail, Giant ([8]; 1000 g ai/ha): 100; Plant response rating, Barnyardgrass ([9]; 1000 g ai/ha): 100; Plant response rating, Kochia (kochia (Bassia scoparia) [10]; [16]): 80; Plant response rating, Kochia (kochia (Bassia scoparia) [11]; 1000 g ai/ha): 90; Plant response rating, Pigweed ([12]; 1000 g ai/ha): 100; Plant response rating, Wheat [13, 16]: 60; Plant response rating, Barnyardgrass [14]: 80"
Cc1cc(C)c(C(=O)N2CCC(F)(F)C2)cc1NS(=O)(=O)C(F)(F)F [Compound 202],0,20,70,100,0,70,0,0,70,40,20,70,80,90,50,80,60,30,90,20,"Plant response rating, Ragweed ([15]; 500 g ai/ha): 90; Plant response rating, Ryegrass, Italian ([4]; 500 g ai/ha): 70; Plant response rating, Foxtail, Giant ([8]; 500 g ai/ha): 70; Kochia plant response rating (kochia (Bassia scoparia) [10]): 50; Plant response rating, Kochia (kochia (Bassia scoparia) [11]; [17]): 40; Plant response rating, Kochia (kochia (Bassia scoparia) [11]; 500 g ai/ha): 80; Plant response rating, Pigweed [12, 17]: 100; Plant response rating, Pigweed ([12]; 500 g ai/ha): 100; Plant response rating, Wheat ([13]; 125 g ai/ha): 30; Wheat plant response rating [13]: 60"
Cc1cc(Cl)c(NS(=O)(=O)C(F)(F)F)cc1C(=O)N1CCC(Cl)CC1 [Compound 224],10,60,60,100,30,70,0,40,50,50,30,60,50,90,90,90,90,70,100,50,"Plant response rating, Ragweed ([15]; 500 g ai/ha): 80; Plant response rating, Ryegrass, Italian ([4]; 500 g ai/ha): 100; Plant response rating, Foxtail, Giant ([8]; 500 g ai/ha): 100; Kochia plant response rating (kochia (Bassia scoparia) [10]): 70; Plant response rating, Kochia (kochia (Bassia scoparia) [11]; [17]): 0; Plant response rating, Kochia (kochia (Bassia scoparia) [11]; 500 g ai/ha): 90; Plant response rating, Pigweed [12, 17]: 100; Plant response rating, Pigweed ([12]; 500 g ai/ha): 100; Plant response rating, Wheat ([13]; 125 g ai/ha): 30; Wheat plant response rating [13]: 70"
Cc1cc(C)c(C2=NOC(C)(CCl)C2)cc1NS(=O)(=O)C(F)(F)F (stereo not drawn) [Compound 226],0,70,30,80,20,60,20,50,30,90,30,60,30,90,60,80,90,90,100,10,"Ragweed plant response rating ([15]; 500 g ai/ha): 90; Ryegrass, Italian plant response rating ([4]; 500 g ai/ha): 100; Foxtail, Giant plant response rating ([8]; 500 g ai/ha): 100; Kochia plant response rating (kochia (Bassia scoparia) [10]): 70; Plant response rating, Kochia (kochia (Bassia scoparia) [11]; [17]): 40; Kochia plant response rating (kochia (Bassia scoparia) [11]; 500 g ai/ha): 90; Plant response rating, Pigweed [12, 17]: 80; Pigweed plant response rating ([12]; 500 g ai/ha): 100; Plant response rating, Wheat ([13]; 125 g ai/ha): 0; Wheat plant response rating [13]: 60"
Cc1cc(C)c(N(S(=O)(=O)C(F)(F)F)S(=O)(=O)C(F)(F)F)cc1C1=NOC(C)(CCl)C1 (stereo not drawn) [Compound 227],10,0,20,50,0,20,0,20,30,40,0,0,0,10,40,90,90,60,90,10,"Ragweed plant response rating ([15]; 500 g ai/ha): 80; Ryegrass, Italian plant response rating ([4]; 500 g ai/ha): 100; Foxtail, Giant plant response rating ([8]; 500 g ai/ha): 100; Kochia plant response rating (kochia (Bassia scoparia) [10]): 60; Plant response rating, Kochia (kochia (Bassia scoparia) [11]; [17]): 60; Kochia plant response rating (kochia (Bassia scoparia) [11]; 500 g ai/ha): 90; Plant response rating, Pigweed [12, 17]: 50; Pigweed plant response rating ([12]; 500 g ai/ha): 80; Plant response rating, Wheat ([13]; 125 g ai/ha): 70; Wheat plant response rating [13]: 40"
Cc1cc(C)c(C2=NOC3(CCC3)C2)cc1NS(=O)(=O)C(F)(F)F [Compound 228],10,70,30,70,0,40,0,0,10,100,0,60,20,30,80,90,90,100,100,20,"Ragweed plant response rating ([15]; 500 g ai/ha): 70; Ryegrass, Italian plant response rating ([4]; 500 g ai/ha): 100; Foxtail, Giant plant response rating ([8]; 500 g ai/ha): 100; Kochia plant response rating (kochia (Bassia scoparia) [10]): 80; Plant response rating, Kochia (kochia (Bassia scoparia) [11]; [17]): 60; Kochia plant response rating (kochia (Bassia scoparia) [11]; 500 g ai/ha): 90; Plant response rating, Pigweed [12, 17]: 100; Pigweed plant response rating ([12]; 500 g ai/ha): 100; Plant response rating, Wheat ([13]; 125 g ai/ha): 0; Wheat plant response rating [13]: 70"
